The values that follow come from patent US7795290B2 (Genentech, Inc., priority 2004, dated 2010).

What all share (assay): HTS ATP-utilizing enzyme assay, off-chip mobility-shift (Caliper HTS 250)
What all share (assay type): biochemical
Details in all cases: kinase named = inhibitory activity/selectivity; test compound 10 μM; active = greater than three-sigma from mean

One experiment concerns the target CDK2 (Homo sapiens, UniProt P24941). In a few lines:
(§1)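 Single-point screen at 10 µM compound: kinase reactions ran 2.5 h at 20–22 °C and were stopped with termination buffer. Inhibition was read as the substrate-to-phosphopeptide ratio by microfluidic mobility shift, with EDTA and DMSO wells as controls. Hits were called by three-sigma limits.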

For a further experiment, the target named is T1, BMX (Homo sapiens, UniProt P51813).
T1 sequence (P51813 1-675): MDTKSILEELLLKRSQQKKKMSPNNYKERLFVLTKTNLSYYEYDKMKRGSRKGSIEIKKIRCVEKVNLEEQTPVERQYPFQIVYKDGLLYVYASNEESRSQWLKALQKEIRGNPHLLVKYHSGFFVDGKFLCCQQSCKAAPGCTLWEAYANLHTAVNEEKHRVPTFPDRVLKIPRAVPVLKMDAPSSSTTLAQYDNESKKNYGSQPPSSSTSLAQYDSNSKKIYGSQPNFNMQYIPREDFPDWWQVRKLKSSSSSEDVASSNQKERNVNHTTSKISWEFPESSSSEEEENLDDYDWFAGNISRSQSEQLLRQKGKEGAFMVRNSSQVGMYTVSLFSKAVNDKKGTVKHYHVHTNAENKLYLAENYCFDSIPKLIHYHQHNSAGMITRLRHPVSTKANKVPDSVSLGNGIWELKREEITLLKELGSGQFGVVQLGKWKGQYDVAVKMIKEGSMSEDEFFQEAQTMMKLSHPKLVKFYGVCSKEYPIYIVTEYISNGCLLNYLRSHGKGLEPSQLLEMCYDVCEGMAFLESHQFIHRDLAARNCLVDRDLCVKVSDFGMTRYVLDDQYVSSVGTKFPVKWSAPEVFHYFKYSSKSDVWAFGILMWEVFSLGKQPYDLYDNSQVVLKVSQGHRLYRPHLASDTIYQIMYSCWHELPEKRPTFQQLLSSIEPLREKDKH
A digest of the protocol:
as §1

For a further experiment, the target named is CDK2/cyclin E (Homo sapiens, UniProt P24941). A digest of the protocol:
as §1

A further experiment concerns the target T2, AKT1 (Homo sapiens, UniProt P31749).
T2 construct: purchased Upstate 14-276
A digest of the protocol: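 AKT1 activity was measured by off-chip mobility shift (Caliper HTS 250) as the ratio of peptide substrate to phosphorylated product. Test compound was at 10 μM, with 2.5 h incubation at 20–22° C. EDTA wells served as 100% control and DMSO wells as 0%. Hits were called at three-sigma limits.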

For a further experiment, the target named is SYK (Homo sapiens, UniProt P43405). In a few lines:
as §1

In a further experiment the target is T3, PDK1 (Homo sapiens, UniProt O15530).
T3 sequence (O15530 1-556): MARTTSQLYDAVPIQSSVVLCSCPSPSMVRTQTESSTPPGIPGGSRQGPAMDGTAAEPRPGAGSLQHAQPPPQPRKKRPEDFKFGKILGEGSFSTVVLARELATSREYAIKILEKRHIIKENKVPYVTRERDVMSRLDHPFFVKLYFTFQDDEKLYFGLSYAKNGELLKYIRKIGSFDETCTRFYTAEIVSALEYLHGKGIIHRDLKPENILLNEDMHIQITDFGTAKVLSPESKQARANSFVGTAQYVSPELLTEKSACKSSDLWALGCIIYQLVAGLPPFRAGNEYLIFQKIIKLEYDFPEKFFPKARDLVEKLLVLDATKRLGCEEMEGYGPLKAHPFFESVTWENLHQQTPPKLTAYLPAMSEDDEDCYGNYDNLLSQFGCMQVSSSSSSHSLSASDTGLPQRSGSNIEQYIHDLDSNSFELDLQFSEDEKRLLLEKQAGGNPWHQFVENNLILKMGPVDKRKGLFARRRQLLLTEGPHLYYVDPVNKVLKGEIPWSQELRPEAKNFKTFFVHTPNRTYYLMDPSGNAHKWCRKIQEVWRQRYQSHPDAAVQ
In a few lines: as §1

The target in a further experiment is T4, FLT-3 (Homo sapiens, UniProt P36888).
T4 sequence (P36888 27-993): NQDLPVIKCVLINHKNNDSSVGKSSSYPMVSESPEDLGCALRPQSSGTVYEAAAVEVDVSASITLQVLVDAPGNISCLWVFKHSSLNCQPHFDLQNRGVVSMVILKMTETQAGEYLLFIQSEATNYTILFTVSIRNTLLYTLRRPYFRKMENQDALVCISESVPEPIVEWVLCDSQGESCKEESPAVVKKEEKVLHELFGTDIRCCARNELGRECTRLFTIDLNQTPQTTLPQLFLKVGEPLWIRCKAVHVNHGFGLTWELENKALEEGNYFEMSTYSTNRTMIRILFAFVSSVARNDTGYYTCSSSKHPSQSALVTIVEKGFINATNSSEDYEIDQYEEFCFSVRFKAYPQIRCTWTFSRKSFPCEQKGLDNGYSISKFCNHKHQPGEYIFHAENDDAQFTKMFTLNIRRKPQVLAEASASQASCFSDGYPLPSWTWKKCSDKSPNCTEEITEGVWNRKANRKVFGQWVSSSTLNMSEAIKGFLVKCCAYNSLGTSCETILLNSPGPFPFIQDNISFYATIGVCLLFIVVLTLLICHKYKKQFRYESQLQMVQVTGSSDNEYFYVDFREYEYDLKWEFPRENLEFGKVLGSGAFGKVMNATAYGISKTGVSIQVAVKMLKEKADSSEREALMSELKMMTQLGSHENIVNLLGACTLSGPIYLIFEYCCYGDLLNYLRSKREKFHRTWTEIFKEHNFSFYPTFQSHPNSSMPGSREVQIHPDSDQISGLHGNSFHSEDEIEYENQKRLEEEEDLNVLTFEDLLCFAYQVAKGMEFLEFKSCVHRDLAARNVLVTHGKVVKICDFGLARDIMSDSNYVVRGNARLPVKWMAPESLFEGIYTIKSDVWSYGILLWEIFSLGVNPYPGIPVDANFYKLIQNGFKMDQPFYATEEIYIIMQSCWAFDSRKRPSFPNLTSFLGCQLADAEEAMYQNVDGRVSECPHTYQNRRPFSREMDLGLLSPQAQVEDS
In a few lines:
as §1

The next experiment concerns the target KIT (Homo sapiens, UniProt P10721). A digest of the protocol: as §1
The target in another experiment is PDGFR-α (Homo sapiens, UniProt P16234). A digest of the protocol:
as §1

A further experiment deals with T5, ZAP70 (Homo sapiens, UniProt P43403).
T5 sequence (P43403 1-619): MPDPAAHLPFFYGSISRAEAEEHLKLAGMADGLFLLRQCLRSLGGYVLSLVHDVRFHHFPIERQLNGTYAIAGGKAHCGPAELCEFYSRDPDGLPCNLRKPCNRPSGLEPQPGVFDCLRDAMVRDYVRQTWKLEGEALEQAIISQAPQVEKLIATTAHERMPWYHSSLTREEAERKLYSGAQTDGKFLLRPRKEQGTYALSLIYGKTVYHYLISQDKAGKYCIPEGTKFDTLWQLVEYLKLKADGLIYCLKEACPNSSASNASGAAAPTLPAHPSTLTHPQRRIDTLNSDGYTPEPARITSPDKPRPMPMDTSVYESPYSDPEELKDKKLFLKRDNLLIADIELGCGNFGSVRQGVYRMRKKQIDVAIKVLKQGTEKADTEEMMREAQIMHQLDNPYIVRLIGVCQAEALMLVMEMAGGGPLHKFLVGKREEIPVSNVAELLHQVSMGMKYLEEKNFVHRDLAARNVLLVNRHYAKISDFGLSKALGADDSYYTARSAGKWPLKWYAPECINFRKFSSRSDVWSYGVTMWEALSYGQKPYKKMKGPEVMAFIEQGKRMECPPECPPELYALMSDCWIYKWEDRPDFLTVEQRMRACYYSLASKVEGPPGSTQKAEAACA
In a few lines:
as §1

Another experiment has as its target T6, DYRK2 (Homo sapiens, UniProt Q92630).
T6 sequence (Q92630 1-601): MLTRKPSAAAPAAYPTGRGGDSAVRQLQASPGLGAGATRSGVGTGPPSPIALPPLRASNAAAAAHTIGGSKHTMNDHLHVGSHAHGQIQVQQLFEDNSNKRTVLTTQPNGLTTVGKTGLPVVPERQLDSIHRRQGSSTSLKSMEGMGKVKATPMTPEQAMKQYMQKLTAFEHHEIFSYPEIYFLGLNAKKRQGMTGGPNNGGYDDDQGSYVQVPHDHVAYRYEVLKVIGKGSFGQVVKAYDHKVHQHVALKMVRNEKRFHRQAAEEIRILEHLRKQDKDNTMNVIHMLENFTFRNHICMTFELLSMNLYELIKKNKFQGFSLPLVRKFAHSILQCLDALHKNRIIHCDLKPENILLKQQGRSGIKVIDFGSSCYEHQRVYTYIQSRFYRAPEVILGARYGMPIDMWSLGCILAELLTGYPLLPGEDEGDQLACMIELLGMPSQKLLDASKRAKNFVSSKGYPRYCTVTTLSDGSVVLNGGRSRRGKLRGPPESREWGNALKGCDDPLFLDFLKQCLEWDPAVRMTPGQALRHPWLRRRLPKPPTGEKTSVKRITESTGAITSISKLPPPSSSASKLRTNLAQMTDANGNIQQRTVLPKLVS
In a few lines: as §1

For a further experiment, the target named is CHEK2 (Homo sapiens, UniProt O96017). In a few lines: as §1
The target of another experiment is MAPKAPK-2 (Homo sapiens, UniProt P49137). In a few lines:
as §1

For the next experiment, the target named is INSR (Homo sapiens, UniProt P06213). In a few lines:
as §1

T2 sequence (P31749 whole entry): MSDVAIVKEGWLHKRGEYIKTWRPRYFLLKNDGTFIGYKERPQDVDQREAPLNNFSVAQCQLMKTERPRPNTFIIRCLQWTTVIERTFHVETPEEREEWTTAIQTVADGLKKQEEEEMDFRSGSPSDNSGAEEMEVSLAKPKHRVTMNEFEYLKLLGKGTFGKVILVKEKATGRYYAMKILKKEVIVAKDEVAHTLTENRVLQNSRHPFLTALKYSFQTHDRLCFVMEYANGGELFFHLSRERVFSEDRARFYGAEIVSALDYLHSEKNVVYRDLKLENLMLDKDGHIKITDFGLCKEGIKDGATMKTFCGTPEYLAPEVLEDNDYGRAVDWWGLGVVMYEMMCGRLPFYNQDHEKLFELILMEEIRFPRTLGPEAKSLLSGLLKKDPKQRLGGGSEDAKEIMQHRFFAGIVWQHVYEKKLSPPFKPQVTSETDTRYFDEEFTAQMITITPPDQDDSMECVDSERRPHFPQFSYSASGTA
KIT, sequence (P10721 26-976): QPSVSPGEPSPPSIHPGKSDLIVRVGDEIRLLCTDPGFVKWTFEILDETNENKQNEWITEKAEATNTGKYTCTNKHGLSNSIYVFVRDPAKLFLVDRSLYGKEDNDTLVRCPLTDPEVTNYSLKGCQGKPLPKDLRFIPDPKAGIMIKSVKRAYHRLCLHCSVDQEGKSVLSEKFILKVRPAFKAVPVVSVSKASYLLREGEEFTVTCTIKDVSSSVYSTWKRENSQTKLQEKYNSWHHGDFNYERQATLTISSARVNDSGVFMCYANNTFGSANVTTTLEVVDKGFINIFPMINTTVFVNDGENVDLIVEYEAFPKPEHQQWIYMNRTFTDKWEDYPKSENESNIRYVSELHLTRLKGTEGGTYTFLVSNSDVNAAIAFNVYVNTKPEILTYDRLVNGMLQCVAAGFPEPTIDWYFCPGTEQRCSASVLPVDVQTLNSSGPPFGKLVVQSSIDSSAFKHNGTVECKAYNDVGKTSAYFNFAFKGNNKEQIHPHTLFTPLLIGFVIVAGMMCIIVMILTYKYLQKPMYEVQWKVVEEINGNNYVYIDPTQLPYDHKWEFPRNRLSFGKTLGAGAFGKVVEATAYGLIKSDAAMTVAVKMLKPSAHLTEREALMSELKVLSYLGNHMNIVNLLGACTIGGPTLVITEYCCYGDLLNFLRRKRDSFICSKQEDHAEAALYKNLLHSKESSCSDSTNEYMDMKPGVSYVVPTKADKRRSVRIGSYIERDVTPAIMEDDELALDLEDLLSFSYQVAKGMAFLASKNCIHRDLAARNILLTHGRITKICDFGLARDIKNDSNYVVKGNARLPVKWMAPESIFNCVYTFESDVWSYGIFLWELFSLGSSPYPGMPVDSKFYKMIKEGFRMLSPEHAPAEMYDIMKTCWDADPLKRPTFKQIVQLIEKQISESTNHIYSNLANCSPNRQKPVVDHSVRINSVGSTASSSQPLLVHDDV
MAPKAPK-2, sequence (P49137 whole entry): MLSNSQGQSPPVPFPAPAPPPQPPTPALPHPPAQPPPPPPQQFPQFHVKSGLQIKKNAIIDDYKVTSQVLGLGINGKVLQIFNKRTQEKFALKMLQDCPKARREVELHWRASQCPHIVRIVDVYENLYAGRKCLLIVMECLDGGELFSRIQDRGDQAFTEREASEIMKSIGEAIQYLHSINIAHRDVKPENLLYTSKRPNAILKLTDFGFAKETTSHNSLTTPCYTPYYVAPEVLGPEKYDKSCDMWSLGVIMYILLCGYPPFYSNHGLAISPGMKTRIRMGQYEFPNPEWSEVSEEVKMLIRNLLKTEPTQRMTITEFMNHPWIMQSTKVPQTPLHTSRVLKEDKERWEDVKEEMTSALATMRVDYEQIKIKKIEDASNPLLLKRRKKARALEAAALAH
PDGFR-α, sequence (P16234 24-1089): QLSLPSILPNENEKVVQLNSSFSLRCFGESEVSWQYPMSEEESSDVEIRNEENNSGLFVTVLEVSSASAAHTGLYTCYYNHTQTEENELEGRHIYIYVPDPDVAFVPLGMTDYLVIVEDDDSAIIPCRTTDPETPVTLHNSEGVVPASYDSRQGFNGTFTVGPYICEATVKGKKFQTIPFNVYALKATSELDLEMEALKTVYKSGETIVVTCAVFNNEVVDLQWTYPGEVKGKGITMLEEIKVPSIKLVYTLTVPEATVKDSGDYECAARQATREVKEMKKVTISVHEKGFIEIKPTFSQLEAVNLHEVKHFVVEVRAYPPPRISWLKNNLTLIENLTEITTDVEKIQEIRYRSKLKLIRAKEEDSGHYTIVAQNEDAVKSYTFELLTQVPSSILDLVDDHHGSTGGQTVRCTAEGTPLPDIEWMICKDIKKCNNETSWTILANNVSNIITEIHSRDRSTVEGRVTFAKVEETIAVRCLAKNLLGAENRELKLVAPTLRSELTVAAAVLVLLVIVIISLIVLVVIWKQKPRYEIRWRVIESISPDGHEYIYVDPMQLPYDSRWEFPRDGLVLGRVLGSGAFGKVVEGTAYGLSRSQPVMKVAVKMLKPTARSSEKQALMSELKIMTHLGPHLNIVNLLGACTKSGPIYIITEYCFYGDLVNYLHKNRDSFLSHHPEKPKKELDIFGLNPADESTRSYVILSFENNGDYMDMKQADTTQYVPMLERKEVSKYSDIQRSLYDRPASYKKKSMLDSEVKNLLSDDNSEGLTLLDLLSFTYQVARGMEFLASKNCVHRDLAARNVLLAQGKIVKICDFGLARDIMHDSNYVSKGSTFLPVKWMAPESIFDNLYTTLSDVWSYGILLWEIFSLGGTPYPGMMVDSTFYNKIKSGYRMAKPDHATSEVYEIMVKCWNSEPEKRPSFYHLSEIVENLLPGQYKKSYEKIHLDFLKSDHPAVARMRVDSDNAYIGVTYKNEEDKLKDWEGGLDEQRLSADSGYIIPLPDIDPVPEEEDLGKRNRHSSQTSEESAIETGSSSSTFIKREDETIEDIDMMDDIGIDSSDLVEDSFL
CHEK2, sequence (O96017 whole entry): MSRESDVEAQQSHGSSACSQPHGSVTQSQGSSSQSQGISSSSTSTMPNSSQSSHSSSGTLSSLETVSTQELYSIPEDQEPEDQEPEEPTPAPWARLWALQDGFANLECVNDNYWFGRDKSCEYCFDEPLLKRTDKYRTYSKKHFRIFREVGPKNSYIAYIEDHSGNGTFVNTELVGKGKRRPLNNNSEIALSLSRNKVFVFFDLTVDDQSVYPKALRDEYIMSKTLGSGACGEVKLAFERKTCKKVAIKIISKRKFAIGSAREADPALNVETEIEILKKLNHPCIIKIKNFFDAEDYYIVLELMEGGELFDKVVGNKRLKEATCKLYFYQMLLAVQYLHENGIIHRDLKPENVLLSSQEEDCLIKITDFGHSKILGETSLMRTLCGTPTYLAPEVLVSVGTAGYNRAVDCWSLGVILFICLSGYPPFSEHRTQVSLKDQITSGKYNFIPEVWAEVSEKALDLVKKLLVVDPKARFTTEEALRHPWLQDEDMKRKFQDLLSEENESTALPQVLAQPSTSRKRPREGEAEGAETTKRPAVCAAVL
INSR, sequence (P06213 28-1382): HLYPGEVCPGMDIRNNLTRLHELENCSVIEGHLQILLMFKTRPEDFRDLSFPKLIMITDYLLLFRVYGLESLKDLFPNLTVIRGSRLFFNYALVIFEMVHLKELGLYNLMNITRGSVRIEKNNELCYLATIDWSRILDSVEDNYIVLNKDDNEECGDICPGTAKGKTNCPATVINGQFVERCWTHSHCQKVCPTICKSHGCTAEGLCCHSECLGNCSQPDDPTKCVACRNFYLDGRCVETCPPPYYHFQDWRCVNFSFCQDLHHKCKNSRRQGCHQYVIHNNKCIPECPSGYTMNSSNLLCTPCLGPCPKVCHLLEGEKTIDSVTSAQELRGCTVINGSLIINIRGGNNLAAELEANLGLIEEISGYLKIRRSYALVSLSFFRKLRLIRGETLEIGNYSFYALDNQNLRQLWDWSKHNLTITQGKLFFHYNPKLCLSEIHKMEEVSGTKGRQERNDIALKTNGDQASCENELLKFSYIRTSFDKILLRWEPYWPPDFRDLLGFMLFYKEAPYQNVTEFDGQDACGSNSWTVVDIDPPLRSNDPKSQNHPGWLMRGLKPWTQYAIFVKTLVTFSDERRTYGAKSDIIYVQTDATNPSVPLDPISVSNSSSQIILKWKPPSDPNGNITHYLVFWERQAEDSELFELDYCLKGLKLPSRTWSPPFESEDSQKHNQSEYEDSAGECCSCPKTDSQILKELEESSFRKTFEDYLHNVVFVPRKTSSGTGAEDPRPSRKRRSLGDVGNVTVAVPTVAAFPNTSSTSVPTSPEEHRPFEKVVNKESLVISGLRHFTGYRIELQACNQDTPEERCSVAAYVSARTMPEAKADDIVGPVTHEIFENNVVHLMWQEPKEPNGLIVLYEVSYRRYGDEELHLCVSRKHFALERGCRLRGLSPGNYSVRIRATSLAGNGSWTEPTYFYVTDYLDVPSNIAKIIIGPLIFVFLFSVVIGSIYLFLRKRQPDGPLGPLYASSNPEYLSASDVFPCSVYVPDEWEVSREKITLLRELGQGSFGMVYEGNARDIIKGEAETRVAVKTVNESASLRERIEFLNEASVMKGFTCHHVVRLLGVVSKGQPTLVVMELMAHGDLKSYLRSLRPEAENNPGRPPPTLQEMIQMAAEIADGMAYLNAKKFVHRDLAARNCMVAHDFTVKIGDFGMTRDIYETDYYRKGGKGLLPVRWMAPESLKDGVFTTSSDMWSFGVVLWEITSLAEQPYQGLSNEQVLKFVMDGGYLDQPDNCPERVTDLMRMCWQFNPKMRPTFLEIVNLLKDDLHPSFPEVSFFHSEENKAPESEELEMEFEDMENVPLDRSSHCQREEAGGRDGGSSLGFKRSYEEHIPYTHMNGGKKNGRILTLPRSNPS

As for `COc1ccc(-c2csc(N(CCCN3CCOCC3)C(=O)c3cc(Cl)sc3Cl)n2)cc1` [2,5-dichloro-N-(4-(4-methoxyphenyl)thiazol-2-yl)-N-(3-morpholinopropyl)thiophene-3-carboxamide], at CDK2, the Activity result is reported as “CDK2”.
For the compound `COc1ccc(-c2csc(N(CCCN3CCOCC3)C(=O)Cc3ccccc3Cl)n2)cc1` [2-(2-chlorophenyl)-N-(4-(4-methoxyphenyl)thiazol-2-yl)-N-(3-morpholinopropyl)acetamide], the Activity entry on BMX is “BMX”.
Take `O=C(c1cccs1)N(CCCN1CCOCC1)c1nc(-c2cccnc2)cs1` [N-(3-morpholinopropyl)-N-(4-(pyridin-3-yl)thiazol-2-yl)thiophene-2-carboxamide]: the Activity entry is listed as “CDK2/cyclin E” on CDK2/cyclin E and “AKT1” on AKT1.
Regarding `CCN(CC)c1ccc(-c2csc(N(CCCN3CCOCC3)C(=O)c3cccs3)n2)cc1` [N-(4-(4-(diethylamino)phenyl)thiazol-2-yl)-N-(3-morpholinopropyl)thiophene-2-carboxamide], the Activity result is “SYK” at SYK and “AKT1” on AKT1.
For the compound `COc1ccc(-c2csc(N(CCCN3CCOCC3)C(=O)c3cc(C)n(C)c3C)n2)cc1` [N-(4-(4-methoxyphenyl)thiazol-2-yl)-1,2,5-trimethyl-N-(3-morpholinopropyl)-1H-pyrrole-3-carboxamide], the Activity entry at CDK2/cyclin E is “CDK2/cyclin E”.
For `COc1ccc(-c2csc(N(CCCN3CCOCC3)C(=O)c3sc(C)nc3C)n2)cc1` [N-(4-(4-methoxyphenyl)thiazol-2-yl)-2,4-dimethyl-N-(3-morpholinopropyl)thiazole-5-carboxamide], the Activity result at PDK1 was “PDK1”.
`COc1ccc(-c2csc(N(CCCN3CCOCC3)C(=O)c3snnc3C)n2)cc1` [N-(4-(4-methoxyphenyl)thiazol-2-yl)-4-methyl-N-(3-morpholinopropyl)-1,2,3-thiadiazole-5-carboxamide]: the Activity entry was “FLT-3” at FLT-3; “KIT” at KIT; “PDGFR-α” on PDGFR-α; “ZAP70” at ZAP70; “DYRK2” at DYRK2.
As to `COc1ccc(-c2csc(N(CCCN3CCOCC3)C(=O)c3ccc(C)cc3)n2)cc1` [N-(4-(4-methoxyphenyl)thiazol-2-yl)-4-methyl-N-(3-morpholinopropyl)benzamide], on FLT-3, the Activity entry is on record as “FLT-3”.
For the compound `COc1ccc(-c2csc(N(CCCN3CCN(C)CC3)C(=O)c3ccco3)n2)cc1` [N-(4-(4-methoxyphenyl)thiazol-2-yl)-N-(3-(4-methylpiperazin-1-yl)propyl)furan-2-carboxamide], the Activity result on CHEK2 was “CHEK2”; at MAPKAPK-2, “MAPKAPK-2”; at AKT1, “AKT1”.
Consider `COc1ccc(-c2csc(N(CCCN3CCN(C)CC3)C(=O)c3cccs3)n2)cc1` [N-(4-(4-methoxyphenyl)thiazol-2-yl)-N-(3-(4-methylpiperazin-1-yl)propyl)thiophene-2-carboxamide], for which the figures for the Activity result at INSR and at AKT1 were “INSR” and “AKT1”, respectively.
Take `COc1ccc(-c2csc(N(CCCN3CCOCC3)C(=O)c3ccc([N+](=O)[O-])s3)n2)cc1` [N-(4-(4-methoxyphenyl)thiazol-2-yl)-N-(3-morpholinopropyl)-5-nitrothiophene-2-carboxamide]: the Activity result on FLT-3 is “FLT-3”; on KIT, “KIT”; on ZAP70, “ZAP70”.
